Assay results as given in patent publication US10287251B2, “Pyrazole derivative or pharmaceutically acceptable salt thereof” (KISSEI PHARMACEUTICAL CO., LTD., priority 2015, dated 2019).

Assays:
TRPM8 = biological target: T1, TRPM8 (Rattus norvegicus, UniProt Q8R455); test: Confirmation test of inhibitory effects on icilin-induced wet-dog shakes; format: in vivo; conditions: female SD rats, icilin 1 mg/kg i.p. 1 hour after dosing, shakes counted for 5 minutes
T1 construct: from tissue; host or cells: whole animal, female SD rats (in vivo)
Procedure, shortened: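 Female SD rats received compounds orally at 0.3 to 10 mg/kg in 5% dimethylacetamide/0.5% methylcellulose. One hour later, icilin (1 mg/kg, i.p., in PEG 400) was given, and wet-dog shakes were counted for 5 min starting 5 min after icilin. Percent inhibition was calculated against vehicle-treated rats.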

[1] = tested on: overactive bladder induced by acetic acid; test: Confirmation test of elongation action of micturition interval of overactive bladder induced by acetic acid; format: in vivo; conditions: Rattus norvegicus, iv; urethane-anesthetized female SD rats, 1 mg/kg/mL via femoral vein, intravesical 0.25% acetic acid; interval after/before administration x100
Text: Further, TRPM8 inhibitory activity can be evaluated by the efficacy inhibiting the wet-dog shake action which is induced by the administration of Icilin, TRPM8 agonist. Furthermore, an effect on overactive bladder (OAB) can be evaluated by an elongation of micturition interval against overactive bladder induced by acetic acid in accordance with a similar method described in J. Urol., 2001, 166, 1142. Confirmation Test of Elongation Action of Micturition Interval of Overactive Bladder Induced by Acetic Acid Urethane (sigma) was dissolved into pure water by 25% w/v, and female SD rats were anesthetized with 1.25 g/kg urethane by subcutaneous administration. Cannulae were placed in femoral vein and bladder, and the bladder cannula was connected to both a syringe pump and a pressure transducer. Detrusor overactivity was induced by intravesical infusion of 0.25% acetic acid in saline at a rate of 3.6 mL/h, and intravesical pressure was monitored via pressure transducer concurrently. Test compounds were dissolved into a mixture of dimethylacetamide and saline (20:80), and were administered via, the femoral vein. Elongation of micturition interval (%) by test compound was calculated from the following formula: [an average of the three micturition interval after administration/an average of the three micturition interval before administration]×100.

T1 sequence (Q8R455 whole entry): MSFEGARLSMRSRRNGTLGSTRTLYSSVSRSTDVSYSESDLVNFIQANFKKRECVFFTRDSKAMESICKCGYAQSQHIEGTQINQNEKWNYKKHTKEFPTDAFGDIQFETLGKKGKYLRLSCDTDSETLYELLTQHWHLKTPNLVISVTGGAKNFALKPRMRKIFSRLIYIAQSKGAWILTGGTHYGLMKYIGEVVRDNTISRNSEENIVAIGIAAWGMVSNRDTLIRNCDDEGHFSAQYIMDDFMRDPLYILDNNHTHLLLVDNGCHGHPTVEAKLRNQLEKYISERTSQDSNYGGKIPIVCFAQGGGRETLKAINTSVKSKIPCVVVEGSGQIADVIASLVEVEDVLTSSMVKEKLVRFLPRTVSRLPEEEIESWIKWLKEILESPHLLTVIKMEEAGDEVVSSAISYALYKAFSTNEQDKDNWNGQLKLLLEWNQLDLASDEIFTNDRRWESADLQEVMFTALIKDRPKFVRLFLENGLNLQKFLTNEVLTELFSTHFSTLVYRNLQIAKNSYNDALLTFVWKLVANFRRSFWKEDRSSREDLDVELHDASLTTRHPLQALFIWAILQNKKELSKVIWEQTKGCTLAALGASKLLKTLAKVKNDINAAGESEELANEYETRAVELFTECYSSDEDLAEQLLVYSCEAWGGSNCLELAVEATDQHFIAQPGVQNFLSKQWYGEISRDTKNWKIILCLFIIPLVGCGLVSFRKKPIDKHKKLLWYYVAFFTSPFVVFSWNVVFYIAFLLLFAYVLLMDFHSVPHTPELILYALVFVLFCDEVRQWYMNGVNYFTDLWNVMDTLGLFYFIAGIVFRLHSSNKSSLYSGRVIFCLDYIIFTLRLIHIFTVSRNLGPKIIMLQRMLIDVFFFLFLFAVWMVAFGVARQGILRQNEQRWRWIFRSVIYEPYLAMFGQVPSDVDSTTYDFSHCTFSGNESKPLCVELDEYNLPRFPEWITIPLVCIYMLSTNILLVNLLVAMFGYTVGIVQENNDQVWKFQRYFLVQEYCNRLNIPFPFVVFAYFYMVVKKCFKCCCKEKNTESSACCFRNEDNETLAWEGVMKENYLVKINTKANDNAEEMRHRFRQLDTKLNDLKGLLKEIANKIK

% inhibition of Wet-Dog Shake (TRPM8; oral dose 0.3 mg/kg) | % inhibition of Wet-Dog Shake (TRPM8; oral dose 3 mg/kg) | % inhibition of Wet-Dog Shake (TRPM8; oral dose 1 mg/kg) | SMILES | response vs control in vivo at 1 mg/kg [1]
91% | – | – | O=C(N[C@H](Cn1nccn1)C(F)(F)CO)c1cccc(F)c1-c1n[nH]c(-c2ccc(F)cc2)c1F [Example 56-1, N-[(2R)-3,3-Difluoro-4-hydroxy-1-(2H-1,2,3-triazol-2-yl)butan-2-yl]-3-fluoro-2-[4-fluoro-5-(4-fluorophenyl)-1H-pyrazol-3-yl]benzamide] | 150%
99% | – | – | O=C(N[C@H](Cn1nccn1)C(F)(F)CO)c1cccc(F)c1-c1cc(-c2ccc(F)cc2)[nH]n1 [Example 50-12, N-[(2R)-3,3-Difluoro-4-hydroxy-1-(2H-1,2,3-triazol-2-yl)butan-2-yl]-3-fluoro-2-[5-(4-fluorophenyl)-1H-pyrazol-3-yl]benzamide] | 191%
– | 86% | – | CC(c1ccccn1)[C@@H](NC(=O)c1cccc(F)c1-c1cc(-c2ccc(Cl)cc2)[nH]n1)[C@H](O)CO (some centres unmarked) [Example 54-16] | 132%
– | – | 54% | O=C(N[C@H](Cn1cccn1)[C@H](F)CO)c1cccc(F)c1-c1cc(-c2ccc(F)cc2)[nH]n1 [Example 50-6] | 197%
